Measured values from ChEMBL document CHEMBL1150181, “Chemistry of Sponges, VIII. Anomoian A, a Bromotyrosine Derivative from Anomoiantbella popeae” (J Nat Prod, 1990).
Activity calls are given as the source filed them.

Columns and labels:
Assay type in all cases: functional, organism-based
Staphylococcus aureus = experiment: Antimicrobial activity against Staphylococcus aureus at 10 ug/disk
Bacillus subtilis = experiment: Antimicrobial activity against Bacillus subtilis at 5 ug/disk
Candida albicans = experiment: Antimicrobial activity against Candida albicans at 25 ug/disk

Measured: Activity

CNC(Cc1cc(Br)c(OC)c(Br)c1)C(=O)NCCCOc1c(Br)cc(CCN(C)C)cc1Br (stereo not drawn)
active: all assays above
